According to patent publication US20260166021A1, “POLYMORPHIC FORMS OF A SOLUBLE EPOXIDE HYDROLASE INHIBITOR AND FORMULATIONS THEREOF” (EicOsis, LLC, priority 2022, published 2026):

What was measured:
Type in all cases: physicochemical
[1] = Thermal stress studies at 60° C. (XRD, HPLC); conditions: HPLC
Protocol: Briefly, 20 mg of solid Form A, B, C, D, E, F, G, and I were weighed into 7 mL glass vials. The vials were covered with tissue and stored in ovens set to 60° C. and ambient pressure. Following 1 and 7 days incubation, solid was collected for XRD analysis.
As shown in these figures, Forms B and C converted to Forms D and A, respectively, while the other forms remained unchanged.
The starting materials, intermediates (1 day of thermal stress), and products (7 days of thermal stress) were analyzed by H PLC. Representative chromatograms from the Form D thermal stress analyses are shown in FIGS. 81-83 (starting material, 1 day, and 7 day samples, respectively).

[2] = Hygroscopic analyses: stability at 75% relative humidity and 40° C. (XRD); conditions: open vial, after 4 and 14 days
Protocol: To further evaluate physical stability, Form D was tested for stability in humid conditions. […] FIG. 84 summarizes XRD analyses used to monitor the polymorph over the 14-day experiment. In this figure, the top panel provides a representative XRD spectrum of Form D, the second from the top panel is an XRD spectrum of the starting material, the third from the top panel is an XRD spectrum of the starting material after 4 days of humidity exposure, and the bottom panel is an XRD spectrum of the starting material after 14 days of humidity exposure.

[3] = Excipient stability analyses (HPLC impurities)
Protocol: For the excipient stability analyses, approximately 10-20 mg Form D was incubated in PEG400, propylene glycol, D-a-Tocopherol polyethylene glycol 1000 succinate (Vitamin E TPGS), Gelucire® 44/14, hydrogenated castor oil, glyceryl caprylate/caprate(Capmul® MCM), ethoxylated solubilizers (Kolliphor® HS 15, Kolliphor® EL), nonionic surfactant (Labrasol), and diethylene glycol monoethyl ether (Transcutol® HP).

[4] = 50° C., Castor Oil, hydrogenated
[5] = Room Temperature, Capmul MCM, EP
[6] = Room Temperature, Capmul MCM, NF
[7] = Room Temperature, Castor Oil, hydrogenated*
[8] = Room Temperature, Gelucire 44/14
[9] = Room Temperature, Kolliphor HS-15
[10] = Room Temperature, Propylene glycol
[11] = Room Temperature, Vitamin E TPGS

For CC[C@H](C)C(=O)N1CCC(NC(=O)Nc2ccc(OC(F)(F)F)c(F)c2)CC1 [Form D, (S)-1-(3-fluoro-4-(trifluoromethoxy)phenyl)-3-(1-(2-methylbutanoyl)piperidin-4-yl)urea], the “Day 1 % AUC” value ([1]; 60° C.) was 100%, the “Day 7 % AUC” value ([1]; 60° C.) was 100% and the “Initial % AUC” value ([1]; before thermal stress) was 100%. The “polymorph stability in humid conditions” value [2] was “unchanged”, the “Impurity, % (Day 1)” value ([3]; 50° C., Capmul MCM, EP) was “None” and the “Impurity, % (Day 3)” value ([3]; 50° C., Capmul MCM, EP) was “None”. For the same compound, the “Impurity, % (Day 1)” value ([3]; 50° C., Capmul MCM, NF) was “None”, the “Impurity, % (Day 3)” value ([3]; 50° C., Capmul MCM, NF) was “None” and the “Impurity, % (Day 1)” value [3, 4] was “None”. For the same compound, the “Impurity, % (Day 3)” value [3, 4] was “None”, the “Impurity, % (Day 1)” value ([3]; 50° C., Gelucire 44/14) was “None” and the “Impurity, % (Day 3)” value ([3]; 50° C., Gelucire 44/14) was “None”. For the same compound, the “Impurity, % (Day 1)” value ([3]; 50° C., Kolliphor EL) was “None”, the “Impurity, % (Day 3)” value ([3]; 50° C., Kolliphor EL) was “None” and the “Impurity, % (Day 1)” value ([3]; 50° C., Kolliphor HS-15) was “None”. The “Impurity, % (Day 3)” value ([3]; 50° C., Kolliphor HS-15) was “None”, the “Impurity, % (Day 1)” value ([3]; 50° C., Labrasol) was “None” and the “Impurity, % (Day 3)” value ([3]; 50° C., Labrasol) was “None”. The “Impurity, % (Day 1)” value ([3]; 50° C., PEG 400) was “None”, the “Impurity, % (Day 1)” value ([3]; 50° C., Propylene glycol) was “None” and the “Impurity, % (Day 3)” value ([3]; 50° C., Propylene glycol) was “None”. The “Impurity, % (Day 1)” value ([3]; 50° C., Transcutol) was “None”, the “Impurity, % (Day 3)” value ([3]; 50° C., Transcutol) was “None” and the “Impurity, % (Day 1)” value ([3]; 50° C., Vitamin E TPGS) was “None”. For the same compound, the “Impurity, % (Day 3)” value ([3]; 50° C., Vitamin E TPGS) was “None”, the “impurities after incubation in excipients” value ([3]; PEG400, propylene glycol, Vitamin E TPGS, Gelucire 44/14, hydrogenated castor oil, Capmul MCM, Kolliphor HS 15, Kolliphor EL, Labrasol, Transcutol HP, 4 or 7 days, room temperature or 50° C., HPLC) was “No impurities were observed” and the “Impurity, % (Day 1)” value [3, 5] was “None”. For the same compound, the “Impurity, % (Day 3)” value [3, 5] was “None”, the “Impurity, % (Day 1)” value [3, 6] was “None” and the “Impurity, % (Day 3)” value [3, 6] was “None”. For the same compound, the “Impurity, % (Day 1)” value [3, 7] was “None”, the “Impurity, % (Day 3)” value [3, 7] was “None” and the “Impurity, % (Day 1)” value [3, 8] was “None”. For the same compound, the “Impurity, % (Day 3)” value [3, 8] was “None”, the “Impurity, % (Day 1)” value ([3]; Room Temperature, Kolliphor EL) was “None” and the “Impurity, % (Day 3)” value ([3]; Room Temperature, Kolliphor EL) was “None”. For the same compound, the “Impurity, % (Day 1)” value [3, 9] was “None”, the “Impurity, % (Day 3)” value [3, 9] was “None” and the “Impurity, % (Day 1)” value ([3]; Room Temperature, Labrasol) was “None”. For the same compound, the “Impurity, % (Day 3)” value ([3]; Room Temperature, Labrasol) was “None”, the “Impurity, % (Day 1)” value ([3]; Room Temperature, PEG 400) was “None” and the “Impurity, % (Day 1)” value [3, 10] was “None”. The “Impurity, % (Day 3)” value [3, 10] was “None”, the “Impurity, % (Day 1)” value ([3]; Room Temperature, Transcutol) was “None” and the “Impurity, % (Day 3)” value ([3]; Room Temperature, Transcutol) was “None”. The “Impurity, % (Day 1)” value [3, 11] was “None” and the “Impurity, % (Day 3)” value [3, 11] was “None”.
